# Test results as given in US20230398130A1, “METHODS AND COMPOSITIONS FOR DIFFERENTIATING STEM CELLS” (Massachusetts Institute of Technology, priority 2020, published 2023).
# Tests used:
# [1] = tested on: ISC-enriched organoids; experiment: Primary screen, 384-well 2.5-D organoid differentiation (ENR+CD, 6 days): carbachol-induced lysozyme secretion (LYZ.S); format: cell-based, murine; settings: for Z.LYZ.S: standard z score; for Z.LYZ.S / SSMD.LYZ.S: primary screen; for SSMD.LYZ.S: strictly standardized mean difference; for Dose.FC.LYZ.S (log 2 fold change, carbachol-induced lysozyme secretion): vs plate median; for Dose.FC.LYZ.S: ENR+CD, 6 days, FC vs plate median
# Source text: (§1) High-throughput screening.
# [2] = tested on: ISC-enriched organoids; experiment: Primary screen, 384-well 2.5-D organoid differentiation (ENR+CD, 6 days, Target Selective Inhibitor Library, vs whole-plate median): ATP (CellTiter-Glo 3D, CTG); settings: for SSMD.CTG: strictly standardized mean difference; for Dose.FC.CTG (log 2 fold change, ATP): vs plate median; for Dose.FC.CTG: ENR+CD, 6 days, FC vs plate median
# [3] = tested on: ISC-enriched organoids; experiment: Primary screen, 384-well 2.5-D organoid differentiation (ENR+CD, 6 days): basal lysozyme secretion (LYZ.NS); format: cell-based, murine; settings: for SSMD.LYZ.NS: strictly standardized mean difference, primary screen; for Dose.FC.LYZ.NS (log 2 fold change, basal lysozyme secretion): vs plate median; for Dose.FC.LYZ.NS: ENR+CD, 6 days, FC vs plate median; for Z.LYZ.NS: standard z score of FC
# Source text: as §1
# [4] = 1st of the 4 dose lines of the treatment (dose not given)
# [5] = 2nd of the 4 dose lines of the treatment (dose not given)
# [6] = 3rd of the 4 dose lines of the treatment (dose not given)
# [7] = 4th of the 4 dose lines of the treatment (dose not given)
Structure (SMILES),"Dose.FC.LYZ.S (log 2 fold change, carbachol-induced lysozyme secretion) ([1]; dose 0.08 uM)","Dose.FC.LYZ.S (log 2 fold change, carbachol-induced lysozyme secretion) ([1]; dose 0.40 uM)","Dose.FC.LYZ.S (log 2 fold change, carbachol-induced lysozyme secretion) ([1]; dose 2.00 uM)","Dose.FC.LYZ.S (log 2 fold change, carbachol-induced lysozyme secretion) ([1]; dose 10.00 uM)",Z.CTG (standard z score) ([2]; dose 0.08 uM),"Dose.FC.CTG (log 2 fold change, ATP) ([2]; dose 0.08 uM)",Z.CTG (standard z score) ([2]; dose 0.40 uM),"Dose.FC.CTG (log 2 fold change, ATP) ([2]; dose 0.40 uM)",Z.CTG (standard z score) ([2]; dose 2.00 uM),"Dose.FC.CTG (log 2 fold change, ATP) ([2]; dose 2.00 uM)",Z.CTG (standard z score) ([2]; dose 10.00 uM),"Dose.FC.CTG (log 2 fold change, ATP) ([2]; dose 10.00 uM)",Z.LYZ.NS (standard z score) ([3]; dose 0.08 uM),"Dose.FC.LYZ.NS (log 2 fold change, basal lysozyme secretion) ([3]; dose 0.08 uM)",Z.LYZ.NS (standard z score) ([3]; dose 0.40 uM),"Dose.FC.LYZ.NS (log 2 fold change, basal lysozyme secretion) ([3]; dose 0.40 uM)",Z.LYZ.NS (standard z score) ([3]; dose 2.00 uM),"Dose.FC.LYZ.NS (log 2 fold change, basal lysozyme secretion) ([3]; dose 2.00 uM)",Z.LYZ.NS (standard z score) ([3]; dose 10.00 uM),"Dose.FC.LYZ.NS (log 2 fold change, basal lysozyme secretion) ([3]; dose 10.00 uM)",further results
Cc1cc(Nc2ncc(Cl)c(Nc3ccccc3S(=O)(=O)C(C)C)n2)c(OC(C)C)cc1C1CCNCC1 [LDK378],,,,,,,,,,,,,,,,,,,,,"Z.LYZ.S [1, 4]: 0.763; Z.LYZ.S [1, 5]: −0.306; Z.LYZ.S [1, 6]: −1.817; Z.LYZ.S [1, 7]: −3.149; SSMD.LYZ.S [1, 4]: 0.574; SSMD.LYZ.S [1, 5]: −0.290; SSMD.LYZ.S [1, 6]: −1.400; SSMD.LYZ.S [1, 7]: −2.075; Z.CTG ([2]; Dose 0.08 uM, primary screen, standard z score): 0.322; Z.CTG ([2]; Dose 0.40 uM, primary screen, standard z score): 0.010; Z.CTG ([2]; Dose 2.00 uM, primary screen, standard z score): −0.869; Z.CTG ([2]; Dose 10.00 uM, primary screen, standard z score): −3.087; SSMD.CTG ([2]; primary screen, 1st of the 4 dose lines of the treatment (dose not given)): 0.320; SSMD.CTG ([2]; primary screen, 2nd of the 4 dose lines of the treatment (dose not given)): 0.013; SSMD.CTG ([2]; primary screen, 3rd of the 4 dose lines of the treatment (dose not given)): −0.596; SSMD.CTG ([2]; primary screen, 4th of the 4 dose lines of the treatment (dose not given)): −1.329; SSMD.LYZ.NS [3, 4]: 0.246; SSMD.LYZ.NS [3, 5]: −0.527; SSMD.LYZ.NS [3, 6]: −1.818; SSMD.LYZ.NS [3, 7]: −2.550"
C[C@H](NC(=O)Cc1cc(F)cc(F)c1)C(=O)N[C@@H]1C(=O)N(C)c2ccccc2-c2ccccc21 [YO-01027],0.105,−0.058,−0.020,−0.184,0.528,0.221,−1.135,−0.475,−1.363,−0.571,−2.464,−1.032,0.443,0.051,0.739,0.085,−0.699,−0.080,−1.369,−0.157,
C[C@]1(c2nc3c(C(N)=O)cccc3[nH]2)CCCN1 [Veliparib (ABT-888)],0.105,0.179,−0.016,−0.136,0.307,0.128,0.132,0.055,−0.057,−0.024,−0.521,−0.218,0.649,0.075,1.211,0.139,0.203,0.023,−0.537,−0.062,
O=C(NC(NC(=S)Nc1ccc(F)c([N+](=O)[O-])c1)C(Cl)(Cl)Cl)C(c1ccccc1)c1ccccc1 (centres unmarked) [CGK733],,,,,,,,,,,,,,,,,,,,,"Dose.FC.LYZ.S ([1]; Dose 0.08 uM): 0.008 log 2 fold change; Dose.FC.LYZ.S ([1]; Dose 0.40 uM): −0.018 log 2 fold change; Dose.FC.LYZ.S ([1]; Dose 2.00 uM): −0.125 log 2 fold change; Dose.FC.LYZ.S ([1]; Dose 10.00 uM): −0.230 log 2 fold change; Dose.FC.CTG ([2]; Dose 0.08 uM): −0.362 log 2 fold change; Z.CTG ([2]; Dose 0.08 uM, standard z score of FC): −0.864; Dose.FC.CTG ([2]; Dose 0.40 uM): −0.093 log 2 fold change; Z.CTG ([2]; Dose 0.40 uM, standard z score of FC): −0.221; Dose.FC.CTG ([2]; Dose 2.00 uM): −0.244 log 2 fold change; Z.CTG ([2]; Dose 2.00 uM, standard z score of FC): −0.582; Dose.FC.CTG ([2]; Dose 10.00 uM): −0.478 log 2 fold change; Z.CTG ([2]; Dose 10.00 uM, standard z score of FC): −1.143; Dose.FC.LYZ.NS ([3]; Dose 0.08 uM): 0.099 log 2 fold change; Z.LYZ.NS ([3]; Dose 0.08 uM): 0.863; Dose.FC.LYZ.NS ([3]; Dose 0.40 uM): −0.026 log 2 fold change; Z.LYZ.NS ([3]; Dose 0.40 uM): −0.222; Dose.FC.LYZ.NS ([3]; Dose 2.00 uM): −0.099 log 2 fold change; Z.LYZ.NS ([3]; Dose 2.00 uM): −0.865; Dose.FC.LYZ.NS ([3]; Dose 10.00 uM): −0.122 log 2 fold change; Z.LYZ.NS ([3]; Dose 10.00 uM): −1.063"
